Laboratory results reported in patent publication US20250129430A1, “HIGH ATP-AFFINITY PROTEIN AS THERAPEUTIC TARGET FOR INTRACTABLE CANCER MOLECULAR SUBTYPES AND INHIBITOR THEREOF” (VeraVerse Co., Ltd., priority 2021, published 2025).

Columns and labels:
Assay in all cases: Cell viability drug screen, 12-point dose-response AUC
Format in all cases: cell-based, human
FU97 = tested on: FU97; parameters: Average Area Under the Viability Curve (AUC), AUC norm value: scale not given here; conditions: FU97 cells, 72 hours
Procedure, shortened: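 Trapezoidal AUC of a 12-point, DMSO-normalized dose-response curve. Luminescent viability was measured after 72 h of exposure at 37° C to half-log serial dilutions (0.5% DMSO control), dosed 24 h after plating FU97 cells at 5×10^3 per well.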

NCC19 = NCC19 cells, 72 hours
Procedure, shortened: (§1)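 Each cell line receives a twelve-point half-log titration of drug beginning 24 h after plating 5×10^3 cells per well. Following 72 h culture at 37 °C, luminescent signal is recorded and expressed versus vehicle. AUC is derived by the trapezoidal method.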

NCC24 = NCC24 cells, 72 hours
Procedure, shortened: as §1

MKN1 = MKN1 cells, 72 hours
Procedure, shortened: as §1

YCC2 = YCC2 cells, 72 hours
Procedure, shortened: as §1

SK4 = conditions: 72 hours; for Average Area Under the Viability Curve (AUC), AUC norm value: SK4 cells (SEM subtype)
Procedure, shortened: as §1

SNU638 = SNU638 cells, 72 hours
Procedure, shortened: as §1

SNU16 = SNU16 cells, 72 hours
Procedure, shortened: as §1

NCI_N87 = NCI_N87 cells, 72 hours
Procedure, shortened: as §1

KATO3 = KATO3 cells, 72 hours
Procedure, shortened: as §1

NCC20 = NCC20 cells, 72 hours
Procedure, shortened: as §1

OCUM1 = OCUM1 cells, 72 hours
Procedure, shortened: as §1

YCC11 = conditions: 72 hours; for Average Area Under the Viability Curve (AUC), AUC norm value: YCC11 cells (SEM subtype)
Procedure, shortened: as §1

SNU1967 = SNU1967 cells, 72 hours
Procedure, shortened: as §1

AGS = conditions: 72 hours; for Average Area Under the Viability Curve (AUC), AUC norm value: AGS cells (non-SEM subtype)
Procedure, shortened: (§2)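 Luminescent viability readings, taken 15 min after reagent addition at room temperature, were normalized to the 0.5% DMSO control to build 12-point dose-response curves. Trapezoidal integration gave the AUC. Cells had been plated at 5×10^3 per well and then exposed to half-log dilutions for 72 h.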

SNU601 = SNU601 cells, 72 hours
Procedure, shortened: as §1

MKN28 = MKN28 cells, 72 hours
Procedure, shortened: as §1

Hs746T = conditions: 72 hours; for Average Area Under the Viability Curve (AUC), AUC norm value: Hs746T cells (SEM subtype)
Procedure, shortened: as §1

SNU719 = SNU719 cells, 72 hours
Procedure, shortened: as §2

NCC59 = NCC59 cells, 72 hours
Procedure, shortened: as §1

MKN74 = MKN74 cells, 72 hours
Procedure, shortened: as §2

SNU484 = conditions: 72 hours; for Average Area Under the Viability Curve (AUC), AUC norm value: SNU484 cells (SEM subtype)
Procedure, shortened: as §1

YCC3 = YCC3 cells, 72 hours
Procedure, shortened: as §1

SNU620 = SNU620 cells, 72 hours
Procedure, shortened: as §1

SNU216 = conditions: 72 hours; for Average Area Under the Viability Curve (AUC), AUC norm value: SNU216 cells (non-SEM subtype)
Procedure, shortened: as §2

SNU1 = SNU1 cells, 72 hours
Procedure, shortened: as §1

SNU1750 = conditions: 72 hours; for Average Area Under the Viability Curve (AUC), AUC norm value: SNU1750 cells (SEM subtype)
Procedure, shortened: as §1

MKN45 = conditions: 72 hours; for Average Area Under the Viability Curve (AUC), AUC norm value: MKN45 cells (non-SEM subtype)
Procedure, shortened: as §2

SNU668 = conditions: 72 hours; for Average Area Under the Viability Curve (AUC), AUC norm value: SNU668 cells (SEM subtype)
Procedure, shortened: as §1

O=C(Nc1ccc([N+](=O)[O-])cc1Cl)c1cc(Cl)ccc1O [Niclosamide (Niclocide), Niclosamide]
Average Area Under the Viability Curve (AUC), AUC norm value (FU97): −1.793
Average Area Under the Viability Curve (AUC), AUC norm value (NCC19): 2.917
Average Area Under the Viability Curve (AUC), AUC norm value (NCC24): 0.68
Average Area Under the Viability Curve (AUC), AUC norm value (MKN1): 0.3991
Average Area Under the Viability Curve (AUC), AUC norm value (YCC2): 0.6628
Average Area Under the Viability Curve (AUC), AUC norm value (SK4): −1.038
Average Area Under the Viability Curve (AUC), AUC norm value (SNU638): −1.105
Average Area Under the Viability Curve (AUC), AUC norm value (SNU16): −3.062
Average Area Under the Viability Curve (AUC), AUC norm value (NCI_N87): 2.802
Average Area Under the Viability Curve (AUC), AUC norm value (KATO3): 1.591
Average Area Under the Viability Curve (AUC), AUC norm value (NCC20): 0.2177
Average Area Under the Viability Curve (AUC), AUC norm value (OCUM1): 0
Average Area Under the Viability Curve (AUC), AUC norm value (YCC11): −0.8753
Average Area Under the Viability Curve (AUC), AUC norm value (SNU1967): 0.1419
Average Area Under the Viability Curve (AUC), AUC norm value (AGS): −1.094
Average Area Under the Viability Curve (AUC), AUC norm value (SNU601): 4.911
Average Area Under the Viability Curve (AUC), AUC norm value (MKN28): −0.3809
Average Area Under the Viability Curve (AUC), AUC norm value (Hs746T): −0.6858
Average Area Under the Viability Curve (AUC), AUC norm value (SNU719): 2.503
Average Area Under the Viability Curve (AUC), AUC norm value (NCC59): 1.141
Average Area Under the Viability Curve (AUC), AUC norm value (MKN74): −1.62
Average Area Under the Viability Curve (AUC), AUC norm value (SNU484): −1.164
Average Area Under the Viability Curve (AUC), AUC norm value (YCC3): 1.8253
Average Area Under the Viability Curve (AUC), AUC norm value (SNU620): 0.8518
Average Area Under the Viability Curve (AUC), AUC norm value (SNU216): −0.5185
Average Area Under the Viability Curve (AUC), AUC norm value (SNU1): −1.673
Average Area Under the Viability Curve (AUC), AUC norm value (SNU1750): −0.8987
Average Area Under the Viability Curve (AUC), AUC norm value (MKN45): 1.159
Average Area Under the Viability Curve (AUC), AUC norm value (SNU668): −0.9084

CC(C)[C@]12O[C@H]1[C@@H]1O[C@]13[C@]1(O[C@H]1C[C@H]1C4=C(CC[C@@]13C)C(=O)OC4)[C@@H]2O [Triptolide]
area under the viability curve (AUC), normalized (FU97; 12-point dose-response): −0.6238
area under the viability curve (AUC), normalized (NCC19; 12-point dose-response): −1.507
area under the viability curve (AUC), normalized (NCC24; 12-point dose-response): −1.656
area under the viability curve (AUC), normalized (MKN1; 12-point dose-response): 0.6772
area under the viability curve (AUC), normalized (YCC2; 12-point dose-response): 0.6309
area under the viability curve (AUC), normalized (SK4; SK4 cells, 12-point dose-response): −1.232
area under the viability curve (AUC), normalized (SNU638; 12-point dose-response): 0.828
area under the viability curve (AUC), normalized (SNU16; 12-point dose-response): 1.9544
area under the viability curve (AUC), normalized (NCI_N87; 12-point dose-response): −0.7868
area under the viability curve (AUC), normalized (KATO3; 12-point dose-response): 5.715
area under the viability curve (AUC), normalized (NCC20; 12-point dose-response): 0
area under the viability curve (AUC), normalized (OCUM1; 12-point dose-response): 1.992
area under the viability curve (AUC), normalized (YCC11; YCC11 cells, 12-point dose-response): 0.4144
area under the viability curve (AUC), normalized (SNU1967; 12-point dose-response): −0.4902
area under the viability curve (AUC), normalized (AGS; AGS cells, 12-point dose-response): −1.267
area under the viability curve (AUC), normalized (SNU601; 12-point dose-response): 0.3854
area under the viability curve (AUC), normalized (MKN28; 12-point dose-response): −0.03132
area under the viability curve (AUC), normalized (Hs746T; Hs746T cells, 12-point dose-response): 0.17
area under the viability curve (AUC), normalized (SNU719; 12-point dose-response): 4.573
area under the viability curve (AUC), normalized (NCC59; 12-point dose-response): 0.356
area under the viability curve (AUC), normalized (MKN74; 12-point dose-response): −0.8231
area under the viability curve (AUC), normalized (SNU484; SNU484 cells, 12-point dose-response): −1.234
area under the viability curve (AUC), normalized (YCC3; 12-point dose-response): 2.62
area under the viability curve (AUC), normalized (SNU620; 12-point dose-response): −0.986
area under the viability curve (AUC), normalized (SNU216; SNU216 cells, 12-point dose-response): 1.18
area under the viability curve (AUC), normalized (SNU1; 12-point dose-response): −0.1207
area under the viability curve (AUC), normalized (SNU1750; SNU1750 cells, 12-point dose-response): −0.4213
area under the viability curve (AUC), normalized (MKN45; MKN45 cells, 12-point dose-response): 1.157
area under the viability curve (AUC), normalized (SNU668; SNU668 cells, 12-point dose-response): −1.284

CC[C@@]1(O)C(=O)OCc2c1cc1n(c2=O)Cc2cc3ccccc3nc2-1 [Camptothecin]
Average Area Under the Viability Curve (AUC), AUC norm value (FU97): 1.097
Average Area Under the Viability Curve (AUC), AUC norm value (NCC19): 0.9854
Average Area Under the Viability Curve (AUC), AUC norm value (NCC24): 0.5273
Average Area Under the Viability Curve (AUC), AUC norm value (MKN1): −0.642
Average Area Under the Viability Curve (AUC), AUC norm value (YCC2): 0
Average Area Under the Viability Curve (AUC), AUC norm value (SK4): −0.8823
Average Area Under the Viability Curve (AUC), AUC norm value (SNU638): −0.9365
Average Area Under the Viability Curve (AUC), AUC norm value (SNU16): −1.529
Average Area Under the Viability Curve (AUC), AUC norm value (NCI_N87): 0.7261
Average Area Under the Viability Curve (AUC), AUC norm value (KATO3): 4.769
Average Area Under the Viability Curve (AUC), AUC norm value (NCC20): −1.829
Average Area Under the Viability Curve (AUC), AUC norm value (OCUM1): −0.5033
Average Area Under the Viability Curve (AUC), AUC norm value (YCC11): −0.5718
Average Area Under the Viability Curve (AUC), AUC norm value (SNU1967): −1.86
Average Area Under the Viability Curve (AUC), AUC norm value (AGS): −1.989
Average Area Under the Viability Curve (AUC), AUC norm value (SNU601): −1.853
Average Area Under the Viability Curve (AUC), AUC norm value (MKN28): 0.3881
Average Area Under the Viability Curve (AUC), AUC norm value (Hs746T): 0.3026
Average Area Under the Viability Curve (AUC), AUC norm value (SNU719): 3.079
Average Area Under the Viability Curve (AUC), AUC norm value (NCC59): 1.208
Average Area Under the Viability Curve (AUC), AUC norm value (MKN74): −0.08807
Average Area Under the Viability Curve (AUC), AUC norm value (SNU484): 1.047
Average Area Under the Viability Curve (AUC), AUC norm value (YCC3): 1.3493
Average Area Under the Viability Curve (AUC), AUC norm value (SNU620): −1.867
Average Area Under the Viability Curve (AUC), AUC norm value (SNU216): 1.3094
Average Area Under the Viability Curve (AUC), AUC norm value (SNU1): −2.182
Average Area Under the Viability Curve (AUC), AUC norm value (SNU1750): 0.02348
Average Area Under the Viability Curve (AUC), AUC norm value (MKN45): 0.1203
Average Area Under the Viability Curve (AUC), AUC norm value (SNU668): −1.202
